Reference: patent US7691416B2, “Methods of treating vascular disease” (priority 2002, dated 2010)

Test system: mouse SMC
Experiment: SMC proliferation, [3H]thymidine incorporation
Type: cell-based
Details: for SMC proliferation / Inhibition of SMC proliferation versus air treated controls: CO 250 ppm
Excerpt: Animals. Male (250-350 g) Brown Norway rats (RT1^n) were used as aortic graft donors and male (250-350 g) Lewis rats (RT11) as recipients. Dawley (400-450 g) rats were used in the balloon injury model. Adult male C57BL/6, C57/S129, p21^−/− and p53^−/− null mice were purchased from Jackson Laboratory (Bar Harbor, Me.). mkk3^(−/−) null mice were generated as described Lu et al. (EMBO. 18:1845-1857 (1999)). The inos^−/− and enos^−/− mice were bred at the University of Pittsburgh. Aortic transplant model. Aortic transplantation was performed as described in Shimizu et al. (Nat. Med. 7:738-741 (2001)). Briefly, 3 to 4 cm of descending aorta was harvested from the donor and implanted between the renal arteries and the aortic bifurcation of the recipient. Both edges of the native abdominal aorta were ligated. Balloon injury model. Balloon angioplasty was carried out as described in Murakami et al. (Atherosclerosis 157:361-368 (2001)). Briefly, a 2 Fr. arterial embolectomy catheter (Baxter, Chicago, Ill.) was inserted into the common carotid artery, and injury was created by inflating the balloon to 5 atmospheres of pressure for 5 minutes. The arteries were flushed and the external carotid artery was ligated, ensuring return of blood flow through the common and internal carotid arteries. Injury of the vessel wall and subsequent pathological analysis was made in a manner that was blinded to the treatment group. CO exposure. CO was delivered to animals as described in Otterbein et al. (Nat. Med. 6:422-428 (2000)). Graft donors and recipients were exposed to CO (250 ppm) for two days before transplantation and for 56 days immediately following transplantation. In the balloon injury model, rats received either no pretreatment or were exposed to CO (250 ppm) for one hour prior to injury. Following surgery rats were housed in room air for two weeks. Cells. Primary mouse and rat smooth muscle cells (SMC) were isolated and cultured as described in Laubach et al. (Proc Natl Acad Sci USA 92:10688-9 (1995)). Mouse SMC isolated from HO-1^−/− mice were obtained as described in Duckers et al. (Nat. Med. 7:693-698 (2001)). Cell treatment and reagents. Guanylate cyclase inhibitor 1H(1,2,4) oxadiazolo(4,3-a)quinoxalin-1 (ODQ; Calbiochem-Novabiochem, San Diego, Calif.; 10-100 μM) and p38 MAPK inhibitor pyridinyl imidazol SB203580 (Calbiochem; 5-20 μM) were dissolved in DMSO. The cGMP analogue 8-bromo-cGMP sodium salt (8-Br-cGMP; Sigma-Aldrich, St. Louis, Mo.; 10-100 μM) and the PKG inhibitor (10-100 μM; Alexis Biochemicals) were dissolved in water. Cell counts and [^3H] thymidine incorporation. Rat and mouse SMC were isolated and cultured as described in Peyton et al. (Blood 99:4443-4448 (2002)). Proliferation assays were carried out as described in Petkova et al. (J Biol. Chem. 276:7932-7936 (2001)). For [^3H] thymidine incorporation studies, cells were serum-starved overnight and then stimulated with 10% serum containing 5 μCi/ml [^3H] thymidine (New England Nuclear, Boston Mass.). [^3H]thymidine incorporation was measured by scintillation spectroscopy and presented as mean counts/min/well. Histomorphometric analysis. Aortic grafts and carotid arteries were harvested at 56 and 14 days respectively. Vessels were fixed, embedded, and serially sectioned (5μ) in toto. Every third slide was stained with Hematoxylin and Eosin (H&E) for histomorphometric analyses. In both models, one or two images per slide at a resolution of 1520×1080 pixels were captured at a magnification of 25× with a Zeiss microscope (Axioskop, Iowa City, Iowa), RT color SPOT (Diagnostic Instrument, Inc., Saint Joseph, Mich.) and Windows NT (Compaq Computer) using Adobe Photoshop version 5.5 software. Areas from eight to ten captured images were calculated using digital imaging software as number of pixels corresponding to those areas. Twenty-four to forty-eight sections from each group were statistically analyzed with SPSS software version 10. Immunostaining and cell population histomorphometric analysis. […]

## [C-]#[O+] [CO, carbon monoxide]
SMC from ho-1-/- mice
  SMC proliferation: significantly inhibited
SMC from nos-2-/- (iNOS) mice
  Inhibition of SMC proliferation versus air treated controls: 51±25%
SMC from nos-3-/- (eNOS) mice
  Inhibition of SMC proliferation versus air treated controls: 54±11%
SMC from p21Cip1 deficient mice (p21-/-)
  SMC proliferation: not suppressed
SMC from p53-/- mice, similar extent as wild type
  SMC proliferation: inhibited proliferation
SMC from wild type mice
  Inhibition of SMC proliferation versus air treated controls: 51±12.9%
Cells from mkk3-/- mice exposed to CO
  Cell proliferation: did not inhibit proliferation
